Test system: Isolated Guinea Pig Atria
Assay: In vitro myocardial inotropic activity in isolated guinea pig atria
Assay type: cell-based, guinea pigs
Conditions: @ 10^-5M, isolated guinea pig left atria electrically stimulated at 1.5 Hz, PSS 30°C; for activation at 10 µM: Cavia porcellus, read-out: % Change in Myocardial Contractility (PSCI)
Description: Test for In Vitro Myocardial Inotropic Activity
in Isolated Guinea Pig Atria
Adult male guinea pigs weighing 300-400 g are reserpenized (2000 units i.p.) and, after ten minutes, are killed by cervical dislocation. The hearts are quickly removed and placed in a physiological salt solution (PSS) containing: 118 mM NaCI, 4.8 mM KCI, 2.4 mM CaCI, 1.2 mM MgS04, 1.0 mM NaH2P04, 11.1 m dextrose, and 27.2 mM NaHC03, maintained at pH 7.4 and 30°C. After removing all superficial blood, the hearts are perfused via the aorta to remove any blood from the coronary arteries. After five to ten minutes of perfusion, the left atria are dissected and mounted vertically in a 50 ml, water-jacketed bather containing PSS at 30°C and continuously oxygenated with 95% O2/5% CO2. The left atria are electrically stimulated at 1.5 Hz. The tissues are equilibrated for 30 minutes and washed with fresh PSS. The stimulation voltage is adjusted to 20% above the threshold and tension adjusted to Lmax (the muscle length at which tension development is maximal). The tissues are then equilibrated for an additional 30 minutes, after which the compounds to be examined are added to the tissue bather. […] The compounds are added in full or half-log concentration increments, usually over a concentration range of 1 x 10-^8 to 1 x 10-^4M. The muscles are generally allowed to assume a new steady-state contractile response before each subsequent addition of drug.
Using this procedure the inotropic activity of preferred compounds of the present invention is shown as found in the following Table 1. The reference calcium antagonist has also been tested for comparison.

SMILES	activation at 10 µM [%]	% Change in Myocardial Contractility (PSCI)
CCOC(=O)C1=C(C[S+]([O-])c2ccccc2)NC(C)=C(C#N)C1c1ccccc1C(F)(F)F (single isomer, unassigned) [Example 2 Isomer A, Ethyl 5-cyano-1,4-dihydro-6-methyl-2-[(phenylsulfinyl)methyl]-4-[2-(trifluoromethyl)phenyl]-3-pyridinecarboxylate]	33	–
CCOC(=O)C1=C(C[S+]([O-])c2ccccc2)NC(C)=C(C#N)C1c1ccccc1C(F)(F)F (single isomer, unassigned) [Example 2 Isomer B, Ethyl 5-cyano-1,4-dihydro-6-methyl-2-[(phenylsulfinyl)methyl]-4-[2-(trifluoromethyl)phenyl]-3-pyridinecarboxylate]	–	+53%
CCOC(=O)C1=C(C[S+]([O-])c2ccccc2)NC(C)=C(C#N)C1c1cccc([N+](=O)[O-])c1 (stereo not shown) [Example 2B]	30	–
CCOC(=O)C1=C(C[S+]([O-])c2ccccc2)NC(C)=C(C#N)C1c1ccccc1Cl (stereo not shown) [Example 2D]	26	–
CCOC(=O)C1=C(CS(=O)(=O)c2ccccc2)NC(C)=C(C#N)C1c1ccccc1C(F)(F)F (stereo not shown) [Example 3A, Ethyl 5-cyano-1,4-dihydro-6-methyl-2-[(phenylsulfonyl)methyl]-4-[2-(trifluoromethyl)phenyl]-3-pyridinecarboxylate]	26	–
CCOC(=O)C1=C(CS(=O)(=O)c2ccccc2C)NC(C)=C(C#N)C1c1ccccc1C(F)(F)F (stereo not shown) [Example 3C]	33	–
CCOC(=O)C1=C(CS(=O)(=O)c2ccccc2Cl)NC(C)=C(C#N)C1c1ccccc1C(F)(F)F (stereo not shown) [Example 3D]	33	–

Source: EP0206747B1, “1,4-Dihydropyridine derivatives useful in the treatment of cardiovascular disorders, and a process for producing the derivatives” (WARNER-LAMBERT COMPANY, priority 1985, dated 1986)
